Consider 2 molecules from ChEMBL document CHEMBL3352801, “Synthesis and lipid-lowering evaluation of 3-methyl-1H-purine-2,6-dione derivatives as potent and orally available anti-obesity agents” (Eur J Med Chem, 2014).

The subject of data set [1] is Mus musculus. Kind of data set: Toxicity in diet-induced obese C57Bl/6 mouse assessed as change in food intake at 150 mg/kg/day, po for 4 weeks administered with high-fat diet. It counts as organism-based. More on the design: route oral. Particulars: in vivo, 672 h.
The subject of data set [2] is Mus musculus. Kind of data set: Toxicity in diet-induced obese C57Bl/6 mouse assessed as change in ALT level at 150 mg/kg/day, po for 4 weeks administered with high-fat diet (reference value: 29.6 +/- 8.29 U/L). Format: organism-based. Particulars: in vivo, 672 h. Set-up: route oral.
Data set [3] relates to Mus musculus. Kind of data set: Toxicity in diet-induced obese C57Bl/6 mouse assessed as change in AST level at 150 mg/kg/day, po for 4 weeks administered with high-fat diet (reference value: 128.00 +/- 20.59 U/L). Format: organism-based. Set-up: route oral. Particulars: in vivo, 672 h.
The test system of data set [4] is Mus musculus. Kind of data set: Toxicity in diet-induced obese C57Bl/6 mouse assessed as change in AST level at 150 mg/kg/day, po for 4 weeks administered with high-fat diet (reference value: 125.00 +/- 35.00 U/L). The conditions noted are these: in vivo, 672 h. It counts as organism-based. Set-up: route oral.
For data set [5], the system named is Mus musculus. Kind of data set: Toxicity in diet-induced obese C57Bl/6 mouse assessed as change in ALT level at 150 mg/kg/day, po for 4 weeks administered with high-fat diet (reference value: 33.00 +/- 18.23 U/L). Format: organism-based. More on the design: route oral. Particulars: in vivo, 672 h.
Data set [6] can be described thus: Oral bioavailability in Sprague-Dawley rat at 20 mg/kg. Format: ADME, organism-based. Particulars: in vivo.
Data set [7] deals with Mus musculus. Kind of data set: Antiobesity activity in diet-induced obese C57Bl/6 mouse assessed as change in insulin level at 50 mg/kg/day, po for 4 weeks administered with high-fat diet (reference value: 11.85 +/- 2.6 mU). Format: functional.
The nature of data set [8]: Tmax in Sprague-Dawley rat at 20 mg/kg, po. Format: ADME, organism-based. Set-up: dose 20 mg/kg, route oral. The conditions noted are these: in vivo.
Data set [9] relates to Mus musculus. Kind of data set: Antiobesity activity in diet-induced obese C57Bl/6 mouse assessed as reduction in triglyceride level at 50 mg/kg/day, po for 4 weeks administered with high-fat diet (reference value: 0.93 +/- 0.09 mM). It counts as functional.
The nature of data set [10]: Cmax in Sprague-Dawley rat at 20 mg/kg, po. Format: ADME, organism-based. Set-up: dose 20 mg/kg, route oral. The conditions noted are these: in vivo.
Data set [11] can be described thus: Tmax in Sprague-Dawley rat at 5 mg/kg, iv. Format: ADME, organism-based. Set-up: dose 5 mg/kg, route intravenous. The conditions noted are these: in vivo.
Data set [12] relates to Rattus norvegicus. Kind of data set: Acute toxicity in Sprague-Dawley rat assessed as change in body weight at 2.5 g/kg, po as single dose measured after 7 days. It counts as organism-based. Particulars: in vivo, 2500 mg/kg, 168 h.
Data set [13] concerns Mus musculus. Kind of data set: Antiobesity activity in diet-induced obese C57Bl/6 mouse assessed as reduction in HOMA-IR value at 50 mg/kg/day, po for 4 weeks administered with high-fat diet (reference value: 3.06 +/- 0.85 no_unit). It counts as functional.
Data set [14] in a line: Volume of distribution in Sprague-Dawley rat at 5 mg/kg, iv. Format: ADME, organism-based. Particulars: in vivo. More on the design: dose 5 mg/kg, route intravenous.
Data set [15] has as its system Rattus norvegicus. Kind of data set: Volume of distribution in Sprague-Dawley rat at 20 mg/kg, po. Set-up: dose 20 mg/kg, route oral. The conditions noted are these: in vivo. It counts as ADME, organism-based.
Data set [16] concerns Mus musculus. Kind of data set: Antiobesity activity in diet-induced obese C57Bl/6 mouse assessed as loss of epididymal fat mass at 50 mg/kg/day, po for 4 weeks administered with high-fat diet. Format: functional.
Data set [17] in a line: AUC (0 to t) in Sprague-Dawley rat at 5 mg/kg, iv. Format: ADME, organism-based. More on the design: dose 5 mg/kg, route intravenous. Particulars: plasma.
Data set [18] is described as follows: Half life in Sprague-Dawley rat at 20 mg/kg, po. Format: ADME, organism-based. More on the design: dose 20 mg/kg, route oral. Particulars: in vivo.
Data set [19] deals with Mus musculus. Kind of data set: Antiobesity activity in diet-induced obese C57Bl/6 mouse assessed as reduction in fasting blood glucose at 50 mg/kg/day, po for 4 weeks administered with high-fat diet (reference value: 5.0 +/- 1.30 mM). Format: functional.
Data set [20] in a line: Half life in Sprague-Dawley rat at 5 mg/kg, iv. Particulars: in vivo. Format: ADME, organism-based. Set-up: dose 5 mg/kg, route intravenous.
A short description of data set [21]: Cmax in Sprague-Dawley rat at 5 mg/kg, iv. It counts as ADME, organism-based. Set-up: dose 5 mg/kg, route intravenous. Particulars: in vivo.
For data set [22], the system named is Mus musculus. Kind of data set: Increase in glucose tolerance in diet-induced obese C57Bl/6 mouse assessed as rate of reducing plasma glucose at 50 mg/kg/day, po for 4 weeks by oral glucose tolerance test. Format: functional.
Data set [23] deals with Mus musculus. Kind of data set: Antiobesity activity in diet-induced obese C57Bl/6 mouse assessed as loss of liver weight at 50 mg/kg/day, po for 4 weeks administered with high-fat diet. It counts as functional.
In data set [24] the test system is Mus musculus. Kind of data set: Antiobesity activity in diet-induced obese C57Bl/6 mouse assessed as reduction in LDL level at 50 mg/kg/day, po for 4 weeks administered with high-fat diet (reference value: 0.14 +/- 0.07 mM). Format: functional.
The test system of data set [25] is Mus musculus. Kind of data set: Toxicity in diet-induced obese C57Bl/6 mouse assessed as change in ALT level at 50 mg/kg/day, po for 4 weeks administered with high-fat diet (reference value: 33.00 +/- 18.23 U/L). Format: organism-based. More on the design: route oral. Particulars: in vivo, 672 h.
Data set [26] relates to Mus musculus. Kind of data set: Antiobesity activity in diet-induced obese C57Bl/6 mouse assessed as reduction in hepatic triglyceride level at 50 mg/kg/day, po for 4 weeks administered with high-fat diet by Oil Red O staining-based histological method. It counts as functional. Set-up: scale not given: the % may be the effect or the level left.
Data set [27] is described as follows: Solubility of the compound at room temperature. It counts as physicochemical.
The subject of data set [28] is Mus musculus. Kind of data set: Increase in glucose tolerance in diet-induced obese C57Bl/6 mouse assessed as time required for reducing plasma glucose to initial state at 50 mg/kg/day, po for 4 weeks by oral glucose tolerance test. Format: functional.
The subject of data set [29] is Rattus norvegicus. Kind of data set: Acute toxicity in Sprague-Dawley rat assessed as clinical signs at 2.5 g/kg, po as single dose measured after 7 days. It counts as organism-based. The conditions noted are these: in vivo, 2500 mg/kg, 168 h.
A further data set deals with 3T3-L1. Kind of data set: Inhibition of triglyceride accumulation in mouse 3T3L1 cells at 10 uM after 24 hrs. It counts as functional. Particulars: 3T3-L1, 24 h.
The test system of data set [30] is Mus musculus. Kind of data set: Toxicity in diet-induced obese C57Bl/6 mouse assessed as change in food intake at 50 mg/kg/day, po for 4 weeks administered with high-fat diet. Format: organism-based. The conditions noted are these: in vivo, 672 h. More on the design: route oral.
The subject of data set [31] is Mus musculus. Kind of data set: Antiobesity activity in diet-induced obese C57Bl/6 mouse assessed as increase in HDL level at 50 mg/kg/day, po for 4 weeks administered with high-fat diet (reference value: 0.60 +/- 0.17 mM). Format: functional.
Data set [32] relates to Rattus norvegicus. Kind of data set: Acute toxicity in Sprague-Dawley rat assessed as mortality at 2.5 g/kg, po as single dose measured after 7 days. It counts as organism-based. Particulars: in vivo, 2500 mg/kg, 168 h.
A short description of data set [33]: Total clearance in Sprague-Dawley rat at 20 mg/kg, po. It counts as ADME, organism-based. Particulars: in vivo. Set-up: dose 20 mg/kg, route oral.
Data set [34] is described as follows: Total clearance in Sprague-Dawley rat at 5 mg/kg, iv. Format: ADME, organism-based. More on the design: dose 5 mg/kg, route intravenous. Particulars: in vivo.
The subject of data set [35] is Mus musculus. Kind of data set: Antiobesity activity in diet-induced obese C57Bl/6 mouse assessed as reduction in FFA level at 50 mg/kg/day, po for 4 weeks administered with high-fat diet (reference value: 19.55 +/- 1.57 ng/L). It counts as functional.
The subject of data set [36] is Mus musculus. Kind of data set: Toxicity in diet-induced obese C57Bl/6 mouse assessed as change in AST level at 50 mg/kg/day, po for 4 weeks administered with high-fat diet (reference value: 125.00 +/- 35.00 U/L). It counts as organism-based. More on the design: route oral. Particulars: in vivo, 672 h.
Data set [37] has as its system Mus musculus. Kind of data set: Antiobesity activity in diet-induced obese C57Bl/6 mouse assessed as reduction in body weight at 50 mg/kg/day, po for 4 weeks administered with high-fat diet. It counts as functional. Set-up: scale not given: the % may be the effect or the level left.
Data set [38] is described as follows: AUC (0 to t) in Sprague-Dawley rat at 20 mg/kg, po. Particulars: plasma. More on the design: dose 20 mg/kg, route oral. It counts as ADME, organism-based.

Converted amounts (≈) assume the structure as drawn.

Consider `CN(C)C(=N)N=C(N)N` [METFORMIN], for which the Activity entry was “Non-toxic” with Mus musculus [1]; 46.29 U/L in the data set with Mus musculus [2]; 172 U/L in the data set on Mus musculus [3]; 110 U/L in the data set on Mus musculus [4]; 21.67 U/L in the data set on Mus musculus [5].
Regarding `CCn1c(-c2ccc(OCCN(C)c3ccccn3)cc2)nc2c1c(=O)n(Cc1ccccc1C#N)c(=O)n2C`, the bioavailability – broadly, the share of a dose that reaches the circulation, judged against a reference dose that is usually intravenous – in [6] was 28%. In addition, the Activity is on record as 13.35 mU in the data set on Mus musculus [7]; 1.02 mM in the data set with Mus musculus [9]; “Non-toxic” in the data set with Rattus norvegicus [12]; 3.06 in the data set on Mus musculus [13]; 21.65% with Mus musculus [16]; 5.15 mM in the data set on Mus musculus [19]. For the same molecule, the Activity in the data set with Mus musculus [22] is more than 2 %/min; in the data set on Mus musculus [23] it was 16.8%; with Mus musculus [24], 0.11 mM; in the data set on Mus musculus [25] it was 20 U/L; with Mus musculus [26] it was 7.17%; in the data set on Rattus norvegicus [29] it was “Non-toxic”. Further, the Activity entry is on record as “Non-toxic” in the data set on Mus musculus [30]; 1.96 mM with Mus musculus [31]; “Non-toxic” with Rattus norvegicus [32]; 22.67 ng/L with Mus musculus [35]; 120 U/L with Mus musculus [36]; 15.96% in the data set on Mus musculus [37]. Besides, the values for the time to peak (Tmax) in data set [8] and in data set [11] were 2.27 h and 4.98 min, respectively. Further, the Cmax – broadly, the highest concentration seen after dosing – in data set [10] was 54.4 ng/mL; in data set [21] it was 342 ng/mL. Further, the Vd was 142 L/kg in data set [14] and 416.501 L/kg with Rattus norvegicus [15]. Further, the AUC(0-t) (in general, the area under the concentration-time curve up to a stated or last time point) stood at 404 ng·h/mL in [17] and 453 ng·h/mL in [38]. The half-life (as a rule, the time needed for the level to fall by half in the phase considered) in [18] is 6.3 h; in [20] it was 8.83 h. Also, the concentration in solution in data set [27] (solubility) was 1000 µg/mL (≈ 1870 µM). Further, the Time with Mus musculus [28] is recorded as more than 40 min. Also, in the data set on 3T3-L1, the inhibition – broadly, the change of the read-out against control, counted positive when it falls – at 10 µM was found to be 64.5%. The CL/F (in general, clearance divided by bioavailability, as obtained after extravascular dosing) in data set [33] is 1030 mL/min/kg. In addition, the clearance (in general, the volume of plasma or blood freed of the substance per unit of time) in data set [34] was 189 mL/min/kg.
